# Structures can show the parent of a compound that is named as a salt.
# Test system: LNCaP cells
# Assay: LNCaP cell viability assay (MTS)
# Assay type: cell-based
# Conditions: Homo sapiens, LNCaP cell line
# Method in brief: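 LNCaP cells (5000/well) treated 24 h after plating with compound at 1–80 µM for 48 h. Relative cell number read by MTS; GI50 from four-parameter variable-slope log(inhibitor) fit with bottom constrained to zero.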
smiles,measurement,setting,value
"CN(C)CC(NS(=O)(=O)c1ccc(OC(F)(F)F)c(Cl)c1)c1cccc(C(F)(F)F)c1 (stereo not shown) [Compound 191, 3-chloro-N-(2-(dimethylamino)-1-(3-(trifluoromethyl)phenyl)ethyl)-4-(trifluoromethoxy)benzenesulfonamide]",GI50,"LNCaP, 48 h",16.5 µM
"CN(C)CC(NS(=O)(=O)c1ccc(OC(F)(F)F)c(Cl)c1)c1ccc(Cl)cc1 (stereo not shown) [Compound 192, 3-chloro-N-(1-(4-chlorophenyl)-2-(dimethylamino)ethyl)-4-(trifluoromethoxy)benzenesulfonamide]",GI50,"LNCaP, 48 h",14.4 µM
"CN(C)CC(NS(=O)(=O)c1ccc(Oc2ccc(C(F)(F)F)cc2)cc1)c1cccc(C(F)(F)F)c1 (stereo not shown) [Compound 193, N-(2-(dimethylamino)-1-(3-(trifluoromethyl)phenyl)ethyl)-4-(4-(trifluoromethyl)phenoxy)benzenesulfonamide]",GI50,"LNCaP, 48 h",19.6 µM
"CN(C)CC(NS(=O)(=O)c1ccc(Oc2ccc(C(F)(F)F)cc2)cc1)c1ccc(Cl)cc1 (stereo not shown) [Compound 194, N-(1-(4-chlorophenyl)-2-(dimethylamino)ethyl)-4-(4-(trifluoromethyl)phenoxy)benzenesulfonamide]",GI50,"LNCaP, 48 h",12.2 µM
"CN(C)CC(NS(=O)(=O)c1ccc(OC(F)(F)F)c([N+](=O)[O-])c1)c1cccc(C(F)(F)F)c1 (stereo not shown) [Compound 205, N-(2-(dimethylamino)-1-(3-(trifluoromethyl)phenyl)ethyl)-3-nitro-4-(trifluoromethoxy)benzenesulfonamide]",GI50,"LNCaP, 48 h",2.27 µM
"CN(C)CC(NS(=O)(=O)c1ccc(OC(F)(F)F)c([N+](=O)[O-])c1)c1ccc(Cl)cc1 (stereo not shown) [Compound 206, N-(1-(4-chlorophenyl)-2-(dimethylamino)ethyl)-3-nitro-4-(trifluoromethoxy)benzenesulfonamide]",GI50,"LNCaP, 48 h",1.77 µM
"CN(C)CC(NS(=O)(=O)c1ccc(OCC2CC2)cc1)c1ccc(Cl)c(Cl)c1 (stereo not shown) [Compound 207, 4-(cyclopropylmethoxy)-N-(1-(3,4-dichlorophenyl)-2-(dimethylamino)ethyl)benzenesulfonamide]",GI50,"LNCaP, 48 h",21.8 µM
"CC(C)Oc1ccc(S(=O)(=O)NC(CN(C)C)c2ccc(Cl)c(Cl)c2)cc1 (stereo not shown) [Compound 208, N-(1-(3,4-dichlorophenyl)-2-(dimethylamino)ethyl)-4-isopropoxybenzenesulfonamide]",GI50,"LNCaP, 48 h",25.4 µM
CN(C)CC(NS(=O)(=O)c1ccc(OC2CCCCC2)cc1)c1ccc(Cl)c(Cl)c1 (stereo not shown) [Compound 209],GI50,"LNCaP, 48 h",11.1 µM
"CN(C)CC(NS(=O)(=O)c1ccc(OC2CCCC2)cc1)c1ccc(Cl)c(Cl)c1 (stereo not shown) [Compound 210, 4-(cyclopentyloxy)-N-(1-(3,4-dichlorophenyl)-2-(dimethylamino)ethyl)benzenesulfonamide]",GI50,"LNCaP, 48 h",12.5 µM
"CN(C)CC(NS(=O)(=O)c1ccc(Oc2ccccn2)cc1)c1ccc(Cl)c(Cl)c1 (stereo not shown) [Compound 211, N-(1-(3,4-dichlorophenyl)-2-(dimethylamino)ethyl)-4-(pyridin-2-yloxy)benzenesulfonamide]",GI50,"LNCaP, 48 h",75 µM
"CCc1ccc(S(=O)(=O)NC(CN(C)C)c2ccc(Cl)c(Cl)c2)cc1 (stereo not shown) [Compound 212, N-(1-(3,4-dichlorophenyl)-2-(dimethylamino)ethyl)-4-ethylbenzenesulfonamide]",GI50,"LNCaP, 48 h",34.6 µM
"CC(C)c1ccc(S(=O)(=O)NC(CN(C)C)c2ccc(Cl)c(Cl)c2)cc1 (stereo not shown) [Compound 213, N-(1-(3,4-dichlorophenyl)-2-(dimethylamino)ethyl)-4-isopropylbenzenesulfonamide]",GI50,"LNCaP, 48 h",25.2 µM
"CCCCc1ccc(S(=O)(=O)NC(CN(C)C)c2ccc(Cl)c(Cl)c2)cc1 (stereo not shown) [Compound 214, 4-butyl-N-(1-(3,4-dichlorophenyl)-2-(dimethylamino)ethyl)benzenesulfonamide]",GI50,"LNCaP, 48 h",11.3 µM
"CCCCCc1ccc(S(=O)(=O)NC(CN(C)C)c2ccc(Cl)c(Cl)c2)cc1 (stereo not shown) [Compound 215, N-(1-(3,4-dichlorophenyl)-2-(dimethylamino)ethyl)-4-pentylbenzenesulfonamide]",GI50,"LNCaP, 48 h",7.5 µM
"CN(C)CC(NS(=O)(=O)c1ccc(C2=CCOCC2)cc1)c1ccc(Cl)c(Cl)c1 (stereo not shown) [Compound 216, N-(1-(3,4-dichlorophenyl)-2-(dimethylamino)ethyl)-4-(3,6-dihydro-2H-pyran-4-yl)benzenesulfonamide]",GI50,"LNCaP, 48 h",8.18 µM
"CN(C)CC(NS(=O)(=O)c1ccc(Cl)c(F)c1)c1ccc(Cl)c(Cl)c1 (stereo not shown) [Compound 217, 4-chloro-N-(1-(3,4-dichlorophenyl)-2-(dimethylamino)ethyl)-3-fluorobenzenesulfonamide]",GI50,"LNCaP, 48 h",49.5 µM
"CN(C)CC(NS(=O)(=O)c1ccc(-c2ccccn2)cc1)c1ccc(Cl)c(Cl)c1 (stereo not shown) [Compound 218, N-(1-(3,4-dichlorophenyl)-2-(dimethylamino)ethyl)-4-(pyridin-2-yl)benzenesulfonamide]",GI50,"LNCaP, 48 h",43.7 µM
"CN(C)CC(NS(=O)(=O)c1ccc(OC(F)(F)F)cc1)c1ccc(C(F)(F)F)cc1 (stereo not shown) [Compound 219, N-(2-(dimethylamino)-1-(4-(trifluoromethyl)phenyl)ethyl)-4-(trifluoromethoxy)benzenesulfonamide]",GI50,48 hours,43.6 µM
"CN(C)CC(NS(=O)(=O)c1ccc(Oc2cccc(F)c2)cc1)c1ccc(Cl)c(Cl)c1 (stereo not shown) [Compound 220, N-(1-(3,4-dichlorophenyl)-2-(dimethylamino)ethyl)-4-(3-fluorophenoxy)benzenesulfonamide]",GI50,"LNCaP, 48 h",21.1 µM
"CN(C)CC(NS(=O)(=O)c1ccc(Oc2ccc(F)cc2)cc1)c1ccc(Cl)c(Cl)c1 (stereo not shown) [Compound 221, N-(1-(3,4-dichlorophenyl)-2-(dimethylamino)ethyl)-4-(4-fluorophenoxy)benzenesulfonamide]",GI50,"LNCaP, 48 h",26.6 µM
"CN(C)CC(NS(=O)(=O)c1ccc([N+](=O)[O-])c(OC(F)(F)F)c1)c1ccc(Cl)c(Cl)c1 (stereo not shown) [Compound 222, N-(1-(3,4-dichlorophenyl)-2-(dimethylamino)ethyl)-4-nitro-3-(trifluoromethoxy)benzenesulfonamide]",GI50,48 hours,1.34 µM
"CN(C)CC(NS(=O)(=O)c1cccc(OC(F)(F)F)c1[N+](=O)[O-])c1ccc(Cl)c(Cl)c1 (stereo not shown) [Compound 223, N-(1-(3,4-dichlorophenyl)-2-(dimethylamino)ethyl)-2-nitro-3-(trifluoromethoxy)benzenesulfonamide]",GI50,48 hours,57.4 µM
"CC(C)(C)OC(=O)NCC(NS(=O)(=O)c1ccc(OC(F)(F)F)cc1)c1ccc(Cl)c(Cl)c1 (stereo not shown) [Compound 224, tert-butyl (2-(3,4-dichlorophenyl)-2-((4-(trifluoromethoxy)phenyl)sulfonamido)ethyl)carbamate]",GI50,"LNCaP, 48 h",15.9 µM
"NCC(NS(=O)(=O)c1ccc(OC(F)(F)F)cc1)c1ccc(Cl)c(Cl)c1 (stereo not shown) [Compound 225, N-(2-amino-1-(3,4-dichlorophenyl)ethyl)-4-(trifluoromethoxy)benzenesulfonamide hydrochloride]",GI50,"LNCaP, 48 h",21.8 µM
"COC(=O)c1cc(S(=O)(=O)NC(CN(C)C)c2ccc(Cl)c(Cl)c2)ccc1OC(F)(F)F (stereo not shown) [Compound 226, methyl 5-(N-(1-(3,4-dichlorophenyl)-2-(dimethylamino)ethyl)sulfamoyl)-2-(trifluoromethoxy)benzoate]",GI50,"LNCaP, 48 h",70.6 µM
"O=S(=O)(NCC1(c2ccc(Cl)c(Cl)c2)CC1)c1ccc(OC(F)(F)F)cc1 [Compound 227, N-((1-(3,4-dichlorophenyl)cyclopropyl)methyl)-4-(trifluoromethoxy)benzenesulfonamide]",GI50,"LNCaP, 48 h",48.6 µM
"O=S(=O)(NCC1(c2ccc(Cl)cc2)CC1)c1ccc(OC(F)(F)F)cc1 [Compound 228, N-((1-(4-chlorophenyl)cyclopropyl)methyl)-4-(trifluoromethoxy)benzenesulfonamide]",GI50,"LNCaP, 48 h",59.9 µM
"O=S(=O)(NCC1(c2ccc(Cl)cc2)CCC1)c1ccc(OC(F)(F)F)cc1 [Compound 229, N-((1-(4-chlorophenyl)cyclobutyl)methyl)-4-(trifluoromethoxy)benzenesulfonamide]",GI50,"LNCaP, 48 h",42.5 µM
"CC1(C)CC1(CNS(=O)(=O)c1ccc(OC(F)(F)F)cc1)c1ccccc1 (stereo not shown) [Compound 230, N-((2,2-dimethyl-1-phenylcyclopropyl)methyl)-4-(trifluoromethoxy)benzenesulfonamide]",GI50,"LNCaP, 48 h",37.3 µM
"O=S(=O)(NCC1(c2ccc(Cl)c(Cl)c2)CC1)c1ccc(Oc2ccc(C(F)(F)F)cc2)cc1 [Compound 231, N-((1-(3,4-dichlorophenyl)cyclopropyl)methyl)-4-(4-(trifluoromethyl)phenoxy)benzenesulfonamide]",GI50,"LNCaP, 48 h",47.7 µM
"O=[N+]([O-])c1cc(S(=O)(=O)NCC2(c3ccc(Cl)c(Cl)c3)CC2)ccc1OC(F)(F)F [Compound 232, N-((1-(3,4-dichlorophenyl)cyclopropyl)methyl)-3-nitro-4-(trifluoromethoxy)benzenesulfonamide]",GI50,"LNCaP, 48 h",31.1 µM
"CN1CCN(CC(NS(=O)(=O)c2ccc(Oc3ccc(C(F)(F)F)cc3)cc2)c2ccc(Cl)c(Cl)c2)CC1 (stereo not shown) [Compound 233, N-(1-(3,4-dichlorophenyl)-2-(4-methylpiperazin-1-yl)ethyl)-4-(4-(trifluoromethyl)phenoxy)benzenesulfonamide]",GI50,"LNCaP, 48 h",6.19 µM
"CN1CCN(CC(NS(=O)(=O)c2ccc(Oc3ccccc3)cc2)c2ccc(Cl)cc2)CC1 (stereo not shown) [Compound 234, N-(1-(4-chlorophenyl)-2-(4-methylpiperazin-1-yl)ethyl)-4-phenoxybenzenesulfonamide]",GI50,"LNCaP, 48 h",12.1 µM
"CN1CCN(CC(NS(=O)(=O)c2ccc(Oc3ccc(C(F)(F)F)cc3)cc2)c2ccc(Cl)cc2)CC1 (stereo not shown) [Compound 235, N-(1-(4-chlorophenyl)-2-(4-methylpiperazin-1-yl)ethyl)-4-(4-(trifluoromethyl)phenoxy)benzenesulfonamide]",GI50,"LNCaP, 48 h",11.3 µM
"CN1CCN(CC(NS(=O)(=O)c2ccc(Oc3ccccc3)cc2)c2ccc(Cl)c(Cl)c2)CC1 (stereo not shown) [Compound 236, N-(1-(3,4-dichlorophenyl)-2-(4-methylpiperazin-1-yl)ethyl)-4-phenoxybenzenesulfonamide]",GI50,"LNCaP, 48 h",12.3 µM
"O=S(=O)(NC(CN1CCNCC1)c1ccc(Cl)c(Cl)c1)c1ccc(OC(F)(F)F)cc1 (stereo not shown) [Compound 237, N-(1-(3,4-dichlorophenyl)-2-(piperazin-1-yl)ethyl)-4-(trifluoromethoxy)benzenesulfonamide]",GI50,"LNCaP, 48 h",6.84 µM
